The text below walks through data of US20030198614A1, “Hair growers” (priority 2000, published 2003).

Common to all, as to type: cell-based
In assay [1] the test system is cultured human trichoepithelial cell. Nature of the assay: Trichoepithelial cell growth promoting effect test. The following applies: 1.0×10^-6 mol/L, 2 days, Alamer Blue; negative control = 0, positive control (insulin + hydrocortisone) = 1. Here is the method:
According to the method described in JP-A-2000-63242, a cultured trichoepithelial cell of a human scalp was used to measure a trichoepithelial cell growth promoting effect.
From a human scalp obtained as a by-product of a surgical operation, a hair follicle at a anagen stage in a hair cycle was isolated mechanically under the observation by a stereoscopic microscope. This hair follicle at a anagen stage was treated in a Dulbecco's modified MEM (DMEM) supplemented with 1000 U/ml dispase and 0.2% collagenase for 30 minutes at 37° C. Adipose tissues, connective tissue root sheath and dermal papilla were removed therefrom using the tip of a syringe needle and the hair follicle was treated in a phosphate buffer containing 0.05% EDTA for 5 minutes at 37° C.
Subsequently, the hair follicle was placed on a culture dish coated with Type I collagen, and incubated in a KGM medium (serum-free keratinocyte growth medium). After incubation for 4 to 5 days, the culture medium was exchanged upon ensuring the adhesion of the hair follicle on the bottom face of the culture dish and the growth of the trichoepithelial cell, and thereafter the culture medium was exchanged every 2 days.
After the cell thus proliferated was treated in a phosphate buffer containing 0.05% trypsin and 0.02% EDTA for 5 minutes at 37° C., the reaction was quenched using an equal volume of 0.1% trypsin inhibitor and the cell was recovered by centrifugation (800×g, 5 minutes).
Subsequently, the cell was suspended in the serum-free culture medium described above, and inoculated at the density of 5000 cells/cm^2 onto a culture dish coated with Type I collagen. The culture medium was exchanged every 2 days until the cell became subconfluent. After treating the cell again in the phosphate buffer containing 0.05% trypsin and 0.02% EDTA for 5 minutes at 37° C., the reaction was quenched using an equal volume of 0.1% trypsin inhibitor and the cell was recovered by centrifugation (800×g, 5 minutes). The human trichoepithelial cell thus obtained was adjusted at the concentration of 100,000 cells/ml with a cell cryopreservation solution (Cellbanker: DIA-IATRON) added thereto, and dispensed into each freezing tube as a 100,000 cells (1 ml), which was then stored as being frozen. The cell counts described above were calculated using a hemocytometer.
After inoculating the trichoepithelial cell obtained in the step described above into a culture flask, the cell was treated with a phosphate buffer containing 0.25% trypsin and 0.02% EDTA. The reaction was quenched with 0.1% trypsin inhibitor, and then the mixture was centrifuged at 1,500 rpm for 5 minutes. The supernatant was removed, and the precipitated cell pellet was combined with a KGM medium to prepare a cell suspension.
The cell suspension in the KGM medium was inoculated to a Type I collager-coated 96-well microplate (Falcon) at 3,000 cells (0.2 ml)/well and allowed to stand for about 20 minutes at room temperature until the cell went down onto the bottom. Then, the cell was cultured for 1 day in an incubator in the presence of 5% CO2 at 37° C., whereby obtaining an intended cultured human trichoepithelial cell.
A test material and DMSO were added to a KGM medium at the final concentrations of 1.0×10^−6 mol/L and 0.1%, respectively.
Negative control: DMSO was added to a KGM medium at the final concentration of 0.1%.
Positive control: Insulin and hydrocortisone were dissolved in DMSO, which was then added to a KGM medium. The final concentrations of insulin, hydrocortisone and DMSO were 5 μg/ml, 0.5 μg/ml and 0.1%, respectively.
The KMG medium in the 96-well microplate employed for preparing the cultured human trichoepithelial cell in Step A described above was exchanged with a test material-supplemented medium or a control medium (200 μl/well), and the incubation was continued for 2 days in the presence of 5% CO2 at 37° C. […]

Assay [2] can be described thus: Hair regrowth inducing effect test by cell cluster-accompanied culture method. Conditions: Homo sapiens, Human dermal papilla cell, 48 h, 2 days, Alamer Blue fluorescence, relative to negative control, read-out: Relative respiration level (%). Here is the method: The hair regrowth inducing effect was evaluated using, as an index, an increase in respiration level of a cell cluster formed under the coexistence of a normal human outer root sheath cell and a normal human dermal papilla cell.
Normal human dermal papilla cell (DP): A DP obtained by a primary culture from a head hair was subcultured three times in a 10% FBS-supplemented DMEM medium in a 75 cm^2 incubation flask coated with Type I collagen, and then stored while being frozen in a liquid nitrogen using a cell cryopreservation solution (Cellbanker II: DIA-IATRON).
Normal human outer root sheath cell (ORS): An ORS obtained by a primary culture from a head hair was subcultured three times in a SFM medium in a 75 cm^2 incubation flask coated with Type I collagen, and then stored while being frozen in a liquid nitrogen using Cellbanker II.
The DP and ORS cells stored as frozen were thawed, washed with an ice-cooled SFM medium, dispersed in the same medium and subjected to an accurate cell density measurement using a hemocytometer. Each cell density was adjusted at 5×10^4 cells/ml accurately, and the cell dispersions in equal volumes were combined under cooling with ice. 80 μl aliquots of the combined cell suspending SFM medium were inoculated into individual wells of a 96-well microplate (Sumilon celltight, spheroid 96U plate), and incubated for 2 days. The cell count in a single well upon inoculation was 2,000 cells for each of DP and ORS, thus 4,000 cells in total.
Each 80 μl of a test material-supplemented William's E(+) medium (William's E medium supplemented with 10 μg/ml transferrin, 10 ng/ml hydrocortisone, 10 μg/ml insulin and 10 ng/ml sodium selenite) was added to each well and incubated further for 2 days.
The test material-supplemented William's E(+) medium added to each well was prepared by dissolving the test material in ethanol at a concentration of 10 mM or 100 mM and adding to William's E(+) medium at 0.2% each. Accordingly, the final concentration of the test material in each well was 10 μM or 100 μM, and each final concentration of ethanol was 0.1%.
As a negative control, 80 μl of William's E(+) medium containing 0.2% ethanol was added (final concentration of ethanol was 0.1%).
Alamer Blue, SFM medium and William's E(+) medium were mixed in 2:1:1 ratio, warmed at 37° C. and then 40 μl aliquots were added to individual wells and allowed to react for 6 hours at 37° C. After completion of the reaction, 100 μl aliquots were taken from individual wells, and transferred to a white 96-well plate for fluorescence measurement (Opaque Plate).
A fluorometer (Labsystems Fluoroskan II) was used at the excitation wavelength of 544 nm and the fluorescent wavelength of 590 nm to measure the fluorescence intensity of each well, from which the fluorescent intensity of a cell-free reaction mixture (i.e., the reaction mixture treated similarly using a cell-free SFM medium) was subtracted to obtain a respiration level under each condition. From thus obtained respiration level, a relative respiration level(%) was calculated according to the following equation.
Relative respiration level(%)={Respiration level (test material)}/{Respiration level (negative control)}×100

The test system of assay [3] is human hair follicle in the anagen stage. Nature of the assay: Investigation of hair shaft elongation (organ culture of human hair follicle). Conditions: 1.0×10^-5 mol/L, 5-day incubation, 9 hair follicles per group. Here is the method: A hair follicle in the anagen stage was isolated from a human scalp under a stereoscopic microscope observation, washed with “a medium prepared by adding penicillin, streptomycin and fungizone to Williams E medium (Gibco)” (hereinafter referred to as a (−) medium) and then examined for its length.
A medium obtained by supplementing the (−) medium further with 10 ng/ml hydrocortisone, 10 μg/ml insulin, 10 ng/ml sodium selenite and 10 μg/ml transferring (hereinafter ter referred to as a (+) medium) was dispensed in an aliquot of 1 ml per well into a 24-well microplate. The hair follicle described above was precipitated therein and incubated overnight at 37° C. in the presence of 5% CO2 (preincubation).
The elongation of the hair shaft in a hair follicle was determined by inspecting the microplate described above visually using an inverted microscope with a micrometer attached thereto.
A DMSO solution of a test material was added to a (−) medium for preparation. The final concentrations of the test material and DMSO were 1.0×10^−5 mol/L and 0.1%, respectively.
Only DMSO was added to a (−) medium at the final concentration of 0.1% for preparation.
The culture medium of the hair follicle groups described above was replaced each with the test materialcontaining medium or negative control medium, and the incubation was continued further for 5 days at 37° C. in the presence of 5% CO2. The length of each hair after 5-day incubation was measured, and the means were compared with each other.

For the compound `CCCCCCCCCCCCCCCCOC(CO)CO` [Compound 7, 2-Hexadecyloxy-1,3-propanediol], in assay [1], the “Cell growth promoting index” value stood at 1.5. Further, in assay [2], the activity at 10 µM is 122% and the activity at 100 µM came to 129%. For the same compound, the “Mean of hair shaft elongation” value in assay [3] was determined as 1.2 mm.
Consider `CCCCCCCCCCCCCCCCCCC(O)CO` (stereo not shown) [Compound 9, 1,2-eicosanediol], for which, in assay [1], the “Cell growth promoting index” value is recorded as 1.2. In assay [2], the activity at 10 µM worked out at 130% and the activity at 100 µM was determined as 132%. Also, in assay [3], the “Mean of hair shaft elongation” value was found to be 1.5 mm.
The corresponding values for `CCCCCCCCCCCCCCCCCC(=O)OCC(CO)OC` (stereo not shown) [Compound 6, 3-Hydroxy-2-methoxypropyl stearate] are 1.3, 101%, 102% and 1.7 mm.
The corresponding values for `CCCCCCCCCCCCCCCCCCOCC(C)(C)CO` [Compound 8, 2,2-Dimethyl-3-octadecyloxy-1-propanol] are 1.2, 106%, 112% and 1.7 mm.
